What was measured:
[1] = target: human DHODH (Homo sapiens (Human), UniProt Q02127); test: Inhibition of Human DHODH Activity Assay; format: biochemical; details: chromogen reduction assay with DCIP, human enzyme extract, 10 min at room temperature; read-out: hDHODH IC50
Experimental: DHODH activity and its inhibition were studied using a chromogen reduction assay with DCIP (2,6-dichlorophenol-indophenol). […] Enzyme extracts (8 μl, ˜1.5 μg of human protein) were incubated in 96-well plates. The assay mixture (200 μl) contained 200 μM CoQD, 100 μM L-DHO, 120 μM DCIP in the assay buffer (100 mM HEPES pH 8.0, 150 mM NaCl, 10% Glicerol, 0.05% Triton X-100) and 2 μl of test compound. The compounds were dissolved in DMSO at a stock concentration of 1 mM, and tested at different concentrations […] to calculate an IC50 (concentration of inhibitor required for 50% of inhibition).
The reaction was initiated by adding the enzyme and then incubated for 10 min at room temperature before measuring DCIP reduction by counting a decrease in absorbance at 600 nm using standard instrumentation (Spectramax).
All reactions were carried out in duplicate and graphs, determining IC50 values for each compound, were plotted using the ABase software.

[2] = test system: HIV; details: at concentration that can be obtained with conventional dosing; cited from earlier work

Sequence of human DHODH (Q02127 whole entry): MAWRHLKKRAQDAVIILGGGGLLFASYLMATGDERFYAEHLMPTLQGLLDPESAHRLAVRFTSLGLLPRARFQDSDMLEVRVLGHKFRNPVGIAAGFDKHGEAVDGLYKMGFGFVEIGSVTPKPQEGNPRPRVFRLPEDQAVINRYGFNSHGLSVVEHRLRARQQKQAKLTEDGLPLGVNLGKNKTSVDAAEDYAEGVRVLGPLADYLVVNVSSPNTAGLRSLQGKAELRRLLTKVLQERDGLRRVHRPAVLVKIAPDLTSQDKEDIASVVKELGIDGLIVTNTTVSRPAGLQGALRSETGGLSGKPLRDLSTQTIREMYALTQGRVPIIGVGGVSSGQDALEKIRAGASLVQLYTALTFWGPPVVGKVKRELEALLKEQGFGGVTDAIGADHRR

| IC50 [1] [nM] | Compound | reduction of HIV replication [2] |
| --- | --- | --- |
| 21 | O=C(O)c1cc(C2CC2)ccc1Nc1cnc(-c2cc(C(F)(F)F)ccc2F)nc1 [Example 104, 5-Cyclopropyl-2-(2-(2-fluoro-5-(trifluoromethyl)phenyl)pyrimidin-5-ylamino)benzoic acid] |  |
|  | Cc1oncc1C(=O)Nc1ccc(C(F)(F)F)cc1 [Leflunomide] | about 75% |

— patent US8536165B2, “Azabiphenylaminobenzoic acid derivatives as DHODH inhibitors” (Almirall, S.A., priority 2007, dated 2013)
